Assay results as given in patent US8349829B2, “[4-(1-amino-ethyl)-cyclohexyl]-methyl-amine and [6-(1-amino-ethyl)-tetrahydro-pyran-3-yl]-methyl-amine derivatives as antibacterials” (Actelion Pharmaceuticals Ltd., priority 2008, dated 2013).
In brackets after ≈: the same amount, converted by molar mass.

Key:
P. aeruginosa 27853 = assay: MIC by microdilution in cation-adjusted Mueller-Hinton Broth (NCCLS); type: cell-based; details: for MIC: Pseudomonas aeruginosa, 27853, pH 7.2-7.3; for MIC for P. aeruginosa 27853: pH 7.2-7.3
Method: (§1) These assays have been performed following the description given in “Methods for dilution Antimicrobial Susceptibility Tests for Bacteria that Grow Aerobically, 4th ed.; Approved standard: NCCLS Document M7-A4; National Committee for Clinical Laboratory Standards: Villanova, Pa., USA, 1997”. Minimal inhibitory concentrations (MICs; mg/l) were determined in cation-adjusted Mueller-Hinton Broth (BBL) by a microdilution method following NCCLS guidelines (National Committee for Clinical Laboratory Standards. Methods for Dilution Antimicrobial Susceptibility). The pH of the test medium was 7.2-7.3. All Example compounds were tested against several Gram positive and Gram negative bacteria such as S. aureus, E. faecalis, S. pneumoniae, M catarrhalis, A. baumanii, E. coli or P. aeruginosa.

E. coli 25922 = assay: as above; type: cell-based; details: for MIC: Escherichia coli, 25922, pH 7.2-7.3; for MIC for E. coli 25922: pH 7.2-7.3
Method: as §1

MIC (P. aeruginosa 27853) [µg/mL] | MIC (E. coli 25922) [µg/mL] | MIC for P. aeruginosa 27853 (P. aeruginosa 27853) [µg/mL] | MIC for E. coli 25922 (E. coli 25922) [µg/mL] | SMILES
0.5 (≈ 1.01 µM) | 0.25 (≈ 0.506 µM) |  |  | COc1ccc2ccc(=O)n(CC(N)[C@H]3CC[C@H](NCc4ccc5c(n4)NC(=O)CS5)CC3)c2c1 (mixture of isomers) [Ref. Ex. 1, rac-6-(trans-{4-[1-amino-2-(7-methoxy-2-oxo-2H-quinolin-1-yl)-ethyl]-cyclohexylamino}-methyl)-4H-pyrido[3,2-b][1,4]thiazin-3-one]
0.5 (≈ 1.05 µM) | 0.5 (≈ 1.05 µM) |  |  | COc1ccc2ccc(=O)n(CC(N)[C@H]3CC[C@H](NCc4ccc5c(n4)NC(=O)CO5)CC3)c2c1 (mixture of isomers) [Ref. Ex. 2, rac-6-(trans-{4-[1-amino-2-(7-methoxy-2-oxo-2H-quinolin-1-yl)-ethyl]-cyclohexylamino}-methyl)-4H-pyrido[3,2-b][1,4]oxazin-3-one]
0.25 (≈ 0.506 µM) | 0.063 (≈ 0.128 µM) |  |  | COc1ccc2ccc(=O)n(C[C@H](N)[C@H]3CC[C@H](NCc4ccc5c(n4)NC(=O)CS5)CC3)c2c1 [Example 1, 6-(trans-{4-[(1R)-1-amino-2-(7-methoxy-2-oxo-2H-quinolin-1-yl)-ethyl]-cyclohexylamino}-methyl)-4H-pyrido[3,2-b][1,4]thiazin-3-one]
0.25 (≈ 0.523 µM) | 0.25 (≈ 0.523 µM) |  |  | COc1ccc2ccc(=O)n(C[C@H](N)[C@H]3CC[C@H](NCc4ccc5c(n4)NC(=O)CO5)CC3)c2c1 [Example 2, 6-(trans-{4-[(1R)-1-amino-2-(7-methoxy-2-oxo-2H-quinolin-1-yl)-ethyl]-cyclohexylamino}-methyl)-4H-pyrido[3,2-b][1,4]oxazin-3-one]
4 (≈ 8.34 µM) | 0.25 (≈ 0.521 µM) |  |  | COc1ccc2ccc(=O)n(C[C@H](N)[C@@H]3CC[C@@H](NCc4ccc5c(n4)NC(=O)CO5)CO3)c2c1 [Example 3, 6-({(3R,6S)-6-[(1S)-1-amino-2-(7-methoxy-2-oxo-2H-quinolin-1-yl)-ethyl]-tetrahydro-pyran-3-ylamino}-methyl)-4H-pyrido[3,2-b][1,4]oxazin-3-one]
2 (≈ 4.26 µM) | 0.063 (≈ 0.134 µM) |  |  | COc1ccc2ccc(=O)n(C[C@H](N)[C@@H]3CC[C@@H](NC/C=C/c4cc(F)ccc4F)CO3)c2c1 [Example 4, 1-((2S)-2-amino-2-{(2S,5R)-5-[(E)-3-(2,5-difluoro-phenyl)-allylamino]-tetrahydro-pyran-2-yl}-ethyl)-7-methoxy-1H-quinolin-2-one]
 |  | 2 | 0.125 | COc1ccc2ccc(=O)n(C[C@H](N)[C@@H]3CC[C@@H](NCc4ccc5c(n4)NC(=O)CS5)CO3)c2c1 [Example 5]
2 (≈ 4.03 µM) | 0.25 (≈ 0.503 µM) |  |  | COc1cnc2ccc(=O)n(C[C@H](N)[C@@H]3CC[C@@H](NCc4ccc5c(n4)NC(=O)CS5)CO3)c2c1 [Example 6, 6-({(3R,6S)-6-[(1S)-1-amino-2-(7-methoxy-2-oxo-2H-[1,5]naphthyridin-1-yl)-ethyl]-tetrahydro-pyran-3-ylamino}-methyl)-4H-pyrido[3,2-b][1,4]thiazin-3-one]
4 (≈ 8.32 µM) | 1 (≈ 2.08 µM) |  |  | COc1cnc2ccc(=O)n(C[C@H](N)[C@@H]3CC[C@@H](NCc4ccc5c(n4)NC(=O)CO5)CO3)c2c1 [Example 7, 6-({(3R,6S)-6-[(1S)-1-amino-2-(7-methoxy-2-oxo-2H-[1,5]naphthyridin-1-yl)-ethyl]-tetrahydro-pyran-3-ylamino}-methyl)-4H-pyrido[3,2-b][1,4]oxazin-3-one]
4 (≈ 8.34 µM) | 1 (≈ 2.09 µM) |  |  | COc1cnc2ccc(=O)n(C[C@H](N)[C@@H]3CC[C@@H](NCc4ccc5c(c4)NC(=O)CO5)CO3)c2c1 [Example 8, 6-({(3R,6S)-6-[(1S)-1-amino-2-(7-methoxy-2-oxo-2H-[1,5]naphthyridin-1-yl)-ethyl]-tetrahydro-pyran-3-ylamino}-methyl)-4H-benzo[1,4]oxazin-3-one]
16 (≈ 32.2 µM) | 0.25 (≈ 0.503 µM) |  |  | COc1ccc2ncc(=O)n(C[C@H](N)[C@@H]3CC[C@@H](NCc4ccc5c(n4)NC(=O)CS5)CO3)c2c1 [Example 9, 6-({(3R,6S)-6-[(1S)-1-amino-2-(7-methoxy-2-oxo-2H-quinoxalin-1-yl)-ethyl]-tetrahydro-pyran-3-ylamino}-methyl)-4H-pyrido[3,2-b][1,4]thiazin-3-one]
0.5 (≈ 1.01 µM) | ≤ 0.031 |  |  | COc1ccc2ccc(=O)n(C[C@H](N)[C@@H]3CC[C@@H](NCc4ccc5c(n4)NC(=O)CS5)CO3)c2n1 [Example 10, 6-({(3R,6S)-6-[(1S)-1-amino-2-(7-methoxy-2-oxo-2H-[1,8]naphthyridin-1-yl)-ethyl]-tetrahydro-pyran-3-ylamino}-methyl)-4H-pyrido[3,2-b][1,4]thiazin-3-one]
8 (≈ 16.6 µM) | 0.5 (≈ 1.04 µM) |  |  | COc1ccc2ccc(=O)n(C[C@H](N)[C@@H]3CC[C@@H](NCc4ccc5c(n4)NC(=O)CO5)CO3)c2n1 [Example 11, 6-({(3R,6S)-6-[(1S)-1-amino-2-(7-methoxy-2-oxo-2H-[1,8]naphthyridin-1-yl)-ethyl]-tetrahydro-pyran-3-ylamino}-methyl)-4H-pyrido[3,2-b][1,4]oxazin-3-one]
 |  | 0.5 | 0.063 | COc1ccc2ccc(=O)n(C[C@H](N)[C@@H]3CC[C@@H](NCc4cc5c(cn4)OCCO5)CO3)c2n1 [Example 12, 1-((1S)-2-amino-2-{(2S,5R)-5-[(2,3-dihydro-[1,4]dioxino[2,3-c]pyridin-7-ylmethyl)-amino]-tetrahydro-pyran-2-yl}-ethyl)-7-methoxy-1H-[1,8]naphthyridin-2-one]
 |  | 1 | 0.25 | COc1ccc2ccc(=O)n(CC(N)C3CCC(NC/C=C/c4cc(F)ccc4F)CC3)c2c1 [Example 13, 1-((1R)-2-amino-2-{4-[(E)-3-(2,5-difluoro-phenyl)-allylamino]-cyclohexyl}-ethyl)-7-methoxy-1H-quinolin-2-one]
